One assay addresses Caspase-8 (Homo sapiens, UniProt Q14790). Briefly: Inhibition of human caspase 8.
A further assay concerns the target T1, Caspase-1 (Homo sapiens, UniProt P29466).
T1 sequence (P29466 whole entry): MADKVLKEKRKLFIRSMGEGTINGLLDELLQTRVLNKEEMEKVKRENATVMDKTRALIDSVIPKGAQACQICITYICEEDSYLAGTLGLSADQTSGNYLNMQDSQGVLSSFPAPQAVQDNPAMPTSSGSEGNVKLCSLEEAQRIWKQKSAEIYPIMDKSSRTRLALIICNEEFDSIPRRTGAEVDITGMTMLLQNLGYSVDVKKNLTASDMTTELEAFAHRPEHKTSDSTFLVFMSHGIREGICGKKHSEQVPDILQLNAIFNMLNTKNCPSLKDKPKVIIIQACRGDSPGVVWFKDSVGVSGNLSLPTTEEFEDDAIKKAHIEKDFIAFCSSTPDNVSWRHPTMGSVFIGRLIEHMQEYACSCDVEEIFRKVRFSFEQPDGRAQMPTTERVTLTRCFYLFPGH
The assay can be described thus: Inhibition of human caspase 1.

In the next assay the target is T2, Caspase-7 (Homo sapiens, UniProt P55210).
T2 sequence (P55210 whole entry): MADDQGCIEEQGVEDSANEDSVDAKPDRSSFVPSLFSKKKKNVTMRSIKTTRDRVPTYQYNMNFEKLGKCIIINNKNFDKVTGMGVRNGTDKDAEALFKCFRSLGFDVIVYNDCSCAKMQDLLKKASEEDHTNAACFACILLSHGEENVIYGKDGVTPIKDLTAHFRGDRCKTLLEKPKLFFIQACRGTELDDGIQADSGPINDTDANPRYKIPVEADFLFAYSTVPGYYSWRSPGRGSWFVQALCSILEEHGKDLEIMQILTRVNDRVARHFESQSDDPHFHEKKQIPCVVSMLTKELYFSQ
The assay can be described thus: Inhibition of human caspase 7.

Another assay addresses T3, Caspase-6 (Homo sapiens, UniProt P55212).
T3 sequence (P55212 whole entry): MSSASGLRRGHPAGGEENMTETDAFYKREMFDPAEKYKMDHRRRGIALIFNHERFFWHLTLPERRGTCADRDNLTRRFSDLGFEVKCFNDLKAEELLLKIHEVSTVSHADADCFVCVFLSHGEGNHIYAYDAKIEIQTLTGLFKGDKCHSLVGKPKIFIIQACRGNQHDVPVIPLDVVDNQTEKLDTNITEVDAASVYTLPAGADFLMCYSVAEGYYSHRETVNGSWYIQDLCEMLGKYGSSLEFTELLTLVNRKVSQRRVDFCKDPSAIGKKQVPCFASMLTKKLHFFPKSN
Briefly: Inhibition of human caspase 6.

Another assay concerns the target T4, Caspase-3 (Homo sapiens, UniProt P42574).
T4 sequence (P42574 whole entry): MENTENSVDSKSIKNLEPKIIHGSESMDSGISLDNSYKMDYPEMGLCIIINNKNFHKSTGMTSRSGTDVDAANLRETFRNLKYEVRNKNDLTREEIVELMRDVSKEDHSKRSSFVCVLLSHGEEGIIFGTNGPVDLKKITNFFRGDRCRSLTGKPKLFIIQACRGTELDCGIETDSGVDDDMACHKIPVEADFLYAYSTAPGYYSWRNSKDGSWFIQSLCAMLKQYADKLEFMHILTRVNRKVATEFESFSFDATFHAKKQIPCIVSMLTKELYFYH
Briefly: Inhibition of human caspase 3.

In a further assay the target is T5, Caspase-2 (Homo sapiens, UniProt P42575).
T5 sequence (P42575 whole entry): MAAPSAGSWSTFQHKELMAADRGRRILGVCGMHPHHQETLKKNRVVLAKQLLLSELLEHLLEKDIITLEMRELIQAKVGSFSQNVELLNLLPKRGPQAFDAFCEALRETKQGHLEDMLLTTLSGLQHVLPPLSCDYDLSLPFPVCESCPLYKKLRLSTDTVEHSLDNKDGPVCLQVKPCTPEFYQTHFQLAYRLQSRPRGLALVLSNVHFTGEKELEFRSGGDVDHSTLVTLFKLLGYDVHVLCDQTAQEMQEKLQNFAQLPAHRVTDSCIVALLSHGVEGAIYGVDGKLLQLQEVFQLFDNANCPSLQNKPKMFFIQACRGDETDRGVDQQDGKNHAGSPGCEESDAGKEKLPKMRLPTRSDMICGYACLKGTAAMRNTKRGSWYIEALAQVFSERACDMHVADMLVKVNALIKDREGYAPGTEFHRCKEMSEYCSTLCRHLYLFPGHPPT
Briefly: Inhibition of human caspase 2.

As a reminder, the Ki is the equilibrium dissociation constant of an inhibitor or competing ligand from its target. Higher therefore signals a looser hold on the target.

SMILES strings stand for the structures.

Sequence of Caspase-8 (Q14790 217-374 limits assumed): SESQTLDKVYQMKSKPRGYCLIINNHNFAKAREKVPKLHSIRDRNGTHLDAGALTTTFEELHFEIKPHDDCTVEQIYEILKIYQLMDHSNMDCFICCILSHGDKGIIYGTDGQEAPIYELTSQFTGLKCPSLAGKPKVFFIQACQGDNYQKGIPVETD
Sequence of Caspase-8 (Q14790 385-479 limits assumed): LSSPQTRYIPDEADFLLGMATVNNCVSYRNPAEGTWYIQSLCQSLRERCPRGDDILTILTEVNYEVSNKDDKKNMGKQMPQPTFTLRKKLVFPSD

As to `Cc1cccc(C)c1C(=O)OCC(=O)[C@H](CC(=O)O)NC(=O)[C@H](CCCCNC(=O)CCCCCNC(=O)CCCCC1SC[C@@H]2NC(=O)N[C@H]12)NC(=O)[C@H](CCC(=O)O)NC(=O)OCc1ccccc1` (stereo partly specified), the Ki at Caspase-8 came out at 540 nM; on Caspase-1, 6.3 nM; on Caspase-7, 1200 nM; at Caspase-6 it was 550 µM; on Caspase-3, 840 nM; at Caspase-2, 29 µM.

The values above are taken from ChEMBL document CHEMBL1138864, “Synthesis of novel caspase inhibitors for characterization of the active caspase proteome in vitro and in vivo” (J Med Chem, 2006).
